Laboratory results published in patent US20090172826A1, “Model System for TCR (ZETA) Chain Downregulation” (priority 2003, published 2009).

B1: OVA: chicken ovalbumin adsorbed to Al(OH)3 (Alum), then in PBS; elicits a TH2 response (protein, UniProt P01012 2-386, looked up)
Ovalbumin: GSIGAASMEFCFDVFKELKVHHANENIFYCPIAIMSALAMVYLGAKDSTRTQINKVVRFDKLPGFGDSIEAQCGTSVNVHSSLRDILNQITKPNDVYSFSLASRLYAEERYPILPEYLQCVKELYRGGLEPINFQTAADQARELINSWVESQTNGIIRNVLQPSSVDSQTAMVLVNAIVFKGLWEKAFKDEDTQAMPFRVTEQESKPVQMMYQIGLFRVASMASEKMKILELPFASGTMSMLVLLPDEVSGLEQLESIINFEKLTEWTSSNVMEERKIKVYLPRMKMEEKYNLTSVLMAMGITDVFSSSANLSGISSAESLKISQAVHAAHAEINEAGREVVGSAEAGVDAASVSEEFRADHPFLFCIKHIATNAVLFFGRCVSP
modifications: adsorbed to alum
notes: chicken ovalbumin adsorbed to Al(OH)3 (Alum), then in PBS; elicits a TH2 response

What was measured:
[1] = test system: splenocytes isolated from P. gingivalis-treated mice; assay type: cell-based, mouse; conditions: NH4Cl 20 mM 20 h or bafilomycin A1 5 h at 37° C.
[2] = test system: splenic T cells; assay: BrdU incorporation in Thy1.2+ splenic T cells from treated mice after ex vivo activation; parameters: species or system mouse; conditions: for percentage of BrdU+ T cells of total T cells: BALB/c mice
[3] = test system: splenic T cells; assay: CFSE division of splenic T cells from treated mice after ex vivo activation; assay type: in vivo, mouse; conditions: BALB/c mice
[4] = test system: TCR ζ chain; assay: TCR ζ chain expression in T cells of antigen-treated mice (immunoblot, FACS, confocal); assay type: in vivo, mouse; conditions: full repeated-injection regimen, wild-type mice, versus control mice
[5] = test system: TCR ζ chain; assay: In vitro incubation of isolated T cells and non-T cells with IFN-γ or anti-IFN-γ, ζ chain FACS; assay type: cell-based, mouse; conditions: IFN-γ 50 U/ml, 24 h, with or without control non-T cells
Description: T cells alone or mixed with the indicated non-T cell populations were incubated in vitro for 24 h in the presence or absence of IFN-γ (50 U/ml). Cells were stained for cell surface Thy 1.2 and for total ζ chain expression, as described in FIG. 1A-F, and ζ chain expression is shown.
To examine whether IFN-γ directly or indirectly affects all T cell populations in the spleen, T cells from control mice were exposed to IFN-γ in the presence or absence of control non-T cell populations in vitro.

[6] = Specific serum IgG1 and IgG2a antibodies by ELISA; assay type: in vivo, mouse; conditions: serum at day +9
Excerpt: FIG. 6A: To determine the type of response, mice were bled at day +9 of the experiment and the titer and isotype of the specific antibodies was established by ELISA. Endpoint titers are expressed as the reciprocal values of the last dilution with an OD of 0.1 at 405 nm above maximal absorbance values of samples collected from non-immunized mice.
(§1) Serum samples were collected at day +9 of the experiment and analyzed by ELISA for the levels of P.g.- or OVA-specific IgG1 and IgG2a antibodies as previously described [Houri-Haddad et al. (2000) id ibid.]. IFN-γ and IL-10 concentrations in the chamber exudates were determined at 4 and 24 h, respectively after the third P.g. injection by two-site ELISA [Frolov, I. et al. (1998) Immunology 93, 323-8].

[7] = test system: IL-10; assay: IL-10 in chamber exudates by ELISA; assay type: in vivo, mouse; conditions: 24 h after the third injection; P. gingivalis- versus OVA-treated mice
Description: (§2) The results are presented as the mean value of the individual mice in each treatment group. (n.d.) not detectable values of IFN-γ in the OVA-treated mice.
as §1

[8] = test system: splenocytes; assay: Mitogen-induced splenocyte proliferation, 3H-thymidine uptake; assay type: in vivo, mouse; conditions: percent of response in control mice, FIG. 6c
Description: For mitogen-induced cell proliferation [Leshem, B. et al. (1999) J Immunol Methods 223, 249-54], splenocytes (2×10^6 cells/ml) were cultured in the presence of anti-CD3ε (145-2C11), 2.5 μg/ml concanavalin A (Con A, Biomakor, Israel), 2 ng/ml phorbol 12-myristatel3-acetate (PMA, Sigma) combined with 0.2 μM calcium ionophore (Sigma), or in medium alone. Following 48 h of incubation at 37° C., 1 μCi of [^3H]-thymidine was added to each well. Cells were harvested 8 h later using a Tomtec (USA) cell harvester and counted in a MicroBeta scintillation counter (Wallac, Finland).

[9] = test system: IFN-γ; assay: IFN-γ in chamber exudates by ELISA; assay type: in vivo, mouse; conditions: 4 h after the third injection
Description: as §2, §1

[10] = activation with PMA and ionophore
[11] = activation with anti-CD3 and anti-CD28
[12] = anti-CD3 and anti-CD28, 60 hours

Molecule | ζ protein expression after incubation with lysosome inhibitor [1] | percentage of BrdU+ T cells of total T cells ([2]; activation with ConA) [%] | percentage of BrdU+ T cells of total T cells [2, 10] [%] | percentage of BrdU+ T cells of total T cells [2, 11] [%] | percentage of CFSE-labeled splenic T cells which divided 1-5 times ([3]; PMA and ionophore, 60 hours) [%] | percentage of CFSE-labeled splenic T cells which divided 1-5 times [3, 12] [%] | ζ chain expression in splenocytes / splenic T cells [4] | other results
CO/C1=C\C(C)=C\[C@@H](C)[C@@H](O)[C@@H](C)C/C(C)=C/C=C/[C@H](OC)[C@@H]([C@@H](C)[C@@H](O)[C@H](C)[C@@]2(O)C[C@@H](O)[C@H](C)[C@@H](C(C)C)O2)OC1=O [bafilomycin A] | largely restored ζ protein expression | – | – | – | – | – | – | –
5′-TGACTGTGAACGTTCGAGATGA-3′ [CpG-ODNs] | – | 39 | 80 | 9 | 57 | 6 | significant ζ chain down-regulation | T cell proliferation by BrdU incorporation ([2]; TCR-mediated stimuli (anti-CD3, Con A), compared to controls): significantly lower response
Cl.N [NH4Cl] | largely restored ζ protein expression | – | – | – | – | – | – | –
5′-TGACTGTGAAGGTTGGAGATGA-3′ (listed as DNA, chemistry not given here) [mutated CpG-ODNs, ID; NO.2] | – | 83 | 57 | 71 | 80 | 84 | – | –
IFN-γ | – | – | – | – | – | – | – | ζ chain expression in control T cells exposed in vitro [5]: did not affect ζ chain expression
B1 | – | – | – | – | – | – | did not induce profound ζ downregulation | specific serum antibodies, IgG1 and IgG2a isotype [6]: of the IgG1 isotype and not of the IgG2a isotype; IL-10 concentration in chamber exudates [7]: no great difference; function (proliferative response) of T cells in the spleen [8]: normal function; IFN-γ concentration in chamber exudates [9]: practically undetectable
